Test results as given in patent publication US8828995B2, “Branched oxathiazine derivatives, method for the production thereof, use thereof as medicine and drug containing said derivatives and use thereof” (Sanofi, priority 2011, dated 2014).

target: human 11β-HSD1 microsome fraction (Homo sapiens, UniProt P28845); experiment: Enzymatic 11beta-HSD1 test (SPA-based detection); conditions: IC50 (nM), Biological activity, [1,2-3H]-cortisone, 0.25 mM NADPH, 37° C. for 1 hour
Sequence (P28845 whole entry): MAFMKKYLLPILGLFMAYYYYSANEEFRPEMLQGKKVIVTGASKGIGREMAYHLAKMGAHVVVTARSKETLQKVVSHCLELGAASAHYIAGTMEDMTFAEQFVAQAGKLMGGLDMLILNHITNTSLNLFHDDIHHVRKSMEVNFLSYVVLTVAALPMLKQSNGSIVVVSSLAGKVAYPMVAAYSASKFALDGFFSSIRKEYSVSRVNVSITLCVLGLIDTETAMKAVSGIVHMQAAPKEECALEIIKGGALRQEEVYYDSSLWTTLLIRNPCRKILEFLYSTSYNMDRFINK
Procedure: Enzymatic 11beta-HSD1 test:
Protein and radioactive substrate were dispensed with a Biomek FX unit (Beckman Coulter) for handling liquids. The test compounds were added with a Cybi-Well equipped with a 90 nl pin tool (CyBio).

Compound	IC50 [nM]
O=S1(=O)N=C(N[C@@H](CCO)c2cccc(F)c2)OC2CCCCC21 (stereo partly drawn) [Example 17, (S)-3-(−1,1-Dioxo-4a,5,6,7,8,8a-hexahydro-1H-1lambda6-benzo[1,4,3]oxathiazin-3-ylamino)-3-(3-fluoro-phenyl)-propan-1-ol]	27
CC12CCCCC1(C)S(=O)(=O)N=C(N[C@@H](CCO)c1cccnc1)O2 (single isomer, unassigned) [Example 34]	353
O=S1(=O)N=C(N[C@@H](CCO)c2cccnc2)O[C@H]2CCCC[C@H]21 [Example 25, (S)-3-((4aS,8aR)-1,1-Dioxo-4a,5,6,7,8,8a-hexahydro-1H-1lambda6-benzo[1,4,3]oxathiazin-3-ylamino)-3-pyridin-3-yl-propan-1-ol]	25
O=S1(=O)N=C(N[C@H](CO)Cc2ccccc2)OC2CCCCC21 (stereo partly drawn) [Example 3, (S)-2-(−1,1-Dioxo-4a,5,6,7,8,8a-hexahydro-1H-1lambda6-benzo[1,4,3]oxathiazin-3-ylamino)-3-phenyl-propan-1-ol]	24
O=S1(=O)N=C(N[C@@H](CCO)c2ccccc2)OC2CCC(F)(F)CC21 (stereo partly drawn) [Example 28, (S)-3-(7,7-Difluoro-1,1-dioxo-4a,5,6,7,8,8a-hexahydro-1H-1lambda6-benzo[1,4,3]oxathiazin-3-ylamino)-3-phenyl-propan-1-ol]	445
O=S1(=O)N=C(N[C@@H](CCO)c2cccc(F)c2)OC2CCCCC21 (stereo partly drawn) [Example 10, (S)-3-(−1,1-Dioxo-4a,5,6,7,8,8a-hexahydro-1H-1lambda6-benzo[1,4,3]oxathiazin-3-ylamino)-3-(3-fluoro-phenyl)-propan-1-ol]	104
NS(=O)(=O)CC(NC1=NS(=O)(=O)[C@@H]2CCCC[C@@H]2O1)c1ccccc1 (stereo partly drawn) [Example 29, 2-((4aS,8aR)-1,1-Dioxo-4a,5,6,7,8,8a-hexahydro-1H-1lambda6-benzo[1,4,3]oxathiazin-3-ylamino)-2-phenyl-ethanesulfonamide]	15
O=S1(=O)N=C(N[C@@H](CCO)c2ccc(F)cc2)OC2CCCCC21 (single isomer, unassigned) [Example 20]	13
O=S1(=O)N=C(N[C@@H](CO)Cc2ccccc2)OC2CCCCC21 (stereo partly drawn) [Example 2, (R)-2-(−1,1-Dioxo-4a,5,6,7,8,8a-hexahydro-1H-1lambda6-benzo[1,4,3]oxathiazin-3-ylamino)-3-phenyl-propan-1-ol]	575
O=S1(=O)N=C(N[C@@H](CCO)c2ccccc2)OC2CCOCC21 (single isomer, unassigned) [Example 27]	62
O=S1(=O)N=C(N[C@@H](CCO)c2ccccc2)OC2CCOCC21 (single isomer, unassigned) [Example 26]	742
CC12CCCCC1(C)S(=O)(=O)N=C(N[C@@H](CCO)c1ccccc1)O2 (single isomer, unassigned) [Example 31]	34

Stronger by IC50, values ahead:

IC50 [nM]	Compound
5	O=S1(=O)N=C(N[C@@H](CCO)c2ccc(F)cc2)OC2CCCCC21 (stereo partly drawn) [Example 9, (S)-3-(−1,1-Dioxo-4a,5,6,7,8,8a-hexahydro-1H-1lambda6-benzo[1,4,3]oxathiazin-3-ylamino)-3-(4-fluoro-phenyl)-propan-1-ol]
4	CC12CCCCC1(C)S(=O)(=O)N=C(N[C@@H](CCO)c1ccccc1)O2 (single isomer, unassigned) [Example 32]
4	O=S1(=O)N=C(N[C@@H](CCO)c2ccc(F)cc2)OC2CCCCC21 (stereo partly drawn) [Example 18, (S)-3-(−1,1-Dioxo-4a,5,6,7,8,8a-hexahydro-1H-1lambda6-benzo[1,4,3]oxathiazin-3-ylamino)-3-(4-fluoro-phenyl)-propan-1-ol]
11	O=S1(=O)N=C(N[C@@H](CCO)c2ccc(F)cc2)OC2CCCCC21 (single isomer, unassigned) [Example 19]
11	NS(=O)(=O)CC(NC1=NS(=O)(=O)[C@@H]2CCCC[C@@H]2O1)c1ccccc1 (stereo partly drawn) [Example 30, 2-((4aS,8aR)-1,1-Dioxo-4a,5,6,7,8,8a-hexahydro-1H-1lambda6-benzo[1,4,3]oxathiazin-3-ylamino)-2-phenyl-ethanesulfonamide]
9	CC12CCCCC1(C)S(=O)(=O)N=C(N[C@@H](CCO)c1cccnc1)O2 (single isomer, unassigned) [Example 33]
